Literature values as cited in patent publication US20060167069A1, “Pharmaceutical composition of metaxalone with enhanced oral bioavailability” (Sun Pharmaceutical Industries Ltd., priority 2002, published 2006).

Conditions: prior art statement

aqueous solubility: low aqueous solubility
SMILES: Cc1cc(C)cc(OCC2CNC(=O)O2)c1 (stereo not shown) [Metaxalone, 5-(3,5-dimethylphenoxymethyl)-2-oxazolidinone]
